Measured values published in US20110144128A1, “Heterocyclic Carboxamide Compounds as Steroid Nuclear Receptors Ligands” (EXELIXIS, INC., priority 2005, published 2011).

Columns and labels:
human MR = target: T1, human MR (Homo sapiens, UniProt P08235); assay: GAL4-MR cell based assay, antagonist format
T1 construct: expressed in transfected cells; host or cells: CV-1 (African Green Monkey Kidney Cells), transiently transfected with pCMX-GAL4-MR
T1 sequence (P08235 671-984): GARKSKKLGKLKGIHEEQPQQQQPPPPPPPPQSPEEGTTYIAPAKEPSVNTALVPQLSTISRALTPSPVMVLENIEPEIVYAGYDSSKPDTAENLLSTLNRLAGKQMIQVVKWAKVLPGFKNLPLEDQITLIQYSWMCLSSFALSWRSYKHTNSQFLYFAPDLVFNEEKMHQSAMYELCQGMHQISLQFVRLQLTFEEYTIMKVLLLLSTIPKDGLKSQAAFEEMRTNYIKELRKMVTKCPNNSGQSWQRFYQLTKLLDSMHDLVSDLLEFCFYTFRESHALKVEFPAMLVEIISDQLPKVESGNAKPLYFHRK
Description: Compound activity was determined in a cell-based assay using a GAL4-MR chimera to identify compounds with the ability to modulate MR activity.
The pCMX-GAL4-MR expression plasmid was constructed by cloning nucleotides encoding amino acids 671 to 984 of human MR (see GenBank sequence AAA59571) into the vector pCMX-GAL4 (Perlmann et al., 1993,Genes & Development 7:1411-1422) comprising nucleotides encoding for amino acids 1-147 of the GAL4 DNA binding domain.
The TK-MH 100x4-Luc (GAL4UAS-TK-Luciferase) reporter construct was constructed by insertion of four copies of the Gal4 UAS (Kang et al. 1993, J. Biol. Chem. 268:9629-9635) into the Hind III site of TK-Luc. The parental plasmid, TK-Luc, was prepared by insertion of the Herpes simplex virus thymidine kinase gene promoter (−105 to +51) obtained from the plasmid pBLCAT2 by digestion with HindIII and XhoI (described in Luckow et al., 1987, Nuc. Acid. Res. 15:5490) into the plasmid MMTV-LUC described by Hollenberg and Evans, 1988, Cell 55:899-906) after removal of MMTV-LTR promoter sequence from MMTV-LUC via digestion with HindIII and XhoI. Correct cloning was confirmed by restriction digestion and/or sequencing.
Assays were performed using CV-1 (African Green Monkey Kidney Cells) (ATCC) cells grown in T175 flasks at a density of 3×10^6 cells/flask in DMEM with 5% FBS. Cells were transfected one day after plating at 70-80 percent confluency with a DNA mixture containing (per T175 flask) 9 […] pCMX-GAL4-MR, 9 μg TK-MH100x4-Luc, and 2 μg pCMX β-Gal using the transfection reagent FuGENE6 (Roche Molecular Biochemicals, Indianapolis, Ind.) following recommended protocols and instructions provided by the manufacturer, and incubated with transfection reagents for 5 hours at 37° C.
Transfected cells were trypsinized, resuspended in media, and 45 μL was added to assay plates at a density of approximately 5,000 cells/well using a MultiDrop dispenser (MTX Lab Systems, Inc., VA). The assay plates containing both compounds and screening cells were incubated for approximately 20 hours at 37° C. and 5% CO2 in a tissue culture incubator.
After incubation of the transfected cells with compounds, Lysis buffer (1% Triton X-100, 10% Glycerol, 5 mM DTT, 1 mM EGTA, 25 mM Tricine, pH 7.8) and Luciferin assay buffer (0.73 mM ATP, 22.3 mM Tricine, 0.11 mM EDTA, 33.3 mM DTT, 0.2M MgSO4, 11 mM Luciferin, 6.1 mM Coenzyme A, 0.01 mM HEPES, pH 7.8) were prepared. Media was removed from the plates and lysis buffer and luciferin assay buffer mixed in a 1:1 ratio and then 30 μl of the mixture was added to each well using a Multidrop dispenser. Plates were read on the Northstar (Applied Biosystems, Foster City, Calif.) and data was analyzed using ActivityBase (ID Business Solutions, Ltd., Guildford, Surrey, UK). If required, luciferase values may be normalized for transfection efficiency by measuring β-galactosidase activity based on expression from the pCMX-βGal expression plasmid as described previously (Willy et al., 1995, Gene & Development, 9:1033-1045).
(§1) The following table provides in vitro MR activity data of representative compounds described in the Examples. […] The “+” mark under the selectivity column is given to those compounds having greater than ten-fold antagonist activity against MR compared to at least one nuclear receptor selected from AR, ERα, GR and PR, as determined from the GAL4-AR, GAL4-ERα, GAL4-GR and GAL4-PR assays. The “++” mark under the selectivity column identifies those compounds having greater than ten-fold antagonist activity against MR compared to the four nuclear receptors AR, ERα, GR and PR, as determined from the GAL4-AR, GAL4-ERα, GAL4-GR and GAL4-PR assays.

AR, ERα, GR and PR = assay: selectivity assays GAL4-AR, GAL4-ERα, GAL4-GR and GAL4-PR, antagonist mode; type: cell-based; details: antagonist activity against MR compared to AR
Description: In certain cases, compounds were also evaluated for activity in selectivity assays with other steroid hormone receptor members, including AR, ER, GR and PR, as well as GAL4 alone. Steroid receptors used for selectivity assays were essentially generated as described above for pCMX-GAL4-MR, and comprised the LBD and a portion of the hinge region of the nuclear receptor of interest cloned in frame into the vector pCMX-GAL4 (Perlmann et al., 1993,Genes & Development 7:1411-1422) as described above.
Assays run in antagonist mode included agonists as follows: AR; 25 nM dihydrotestosterone (DHT), ER; 4.5 nM estradiol, GR; 20 nM dexamethasone, and PR; 2 nM medroxyprogesterone (MPA), respectively. Assays run in agonist mode contained no supplemental compounds.
as §1

Row | SMILES | IC50 (human MR) [µM] | Selectivity (AR, ERα, GR and PR)
1 | Cc1cc(C(=O)Nc2ccc(S(C)(=O)=O)cc2)c(C)n1-c1ccccc1C(=O)Nc1cccc([N+](=O)[O-])c1 [2,5-Dimethyl-1-[2-(3-nitro-phenylcarbamoyl)-phenyl]-1H-pyrrole-3-carboxylic acid (4-methanesulfonyl-phenyl)-amide] | 0.5 to 1 | + (greater than ten-fold antagonist activity against MR compared to at least one nuclear receptor selected from AR, ERα, GR and PR)
2 | Cc1cc(C(=O)Nc2ccc(S(C)(=O)=O)cc2)c(C)n1-c1cccc2ccccc12 [2,5-Dimethyl-1-naphthalen-1-yl-1H-pyrrole-3-carboxylic acid (4-methanesulfonyl-phenyl)-amide] | < 0.5 | ++ (greater than ten-fold antagonist activity against MR compared to the four nuclear receptors AR, ERα, GR and PR)
3 | CCc1nc(C(=O)Nc2ccc(S(C)(=O)=O)cc2)c(C)n1-c1ccccc1C(F)(F)F [2-ethyl-5-methyl-1-(2-trifluoromethyl-phenyl)-1H-imidazole-4-carboxylic acid (4-methanesulfonyl-phenyl)-amide] | < 0.5 | ++ (greater than ten-fold antagonist activity against MR compared to the four nuclear receptors AR, ERα, GR and PR)
4 | Cc1[nH]c(C(=O)Nc2ccc(S(C)(=O)=O)cc2)c(C)c1-c1ccccc1C(F)(F)F [3,5-dimethyl-4-(2-trifluoromethyl-phenyl)-1H-pyrrole-2-carboxylic acid (4-methanesulfonyl-phenyl)-amide] | < 0.5 | ++ (greater than ten-fold antagonist activity against MR compared to the four nuclear receptors AR, ERα, GR and PR)
5 | Cc1c(C(=O)Nc2ccc(S(C)(=O)=O)cc2)cc(-c2ccc(F)cc2)n1-c1ccccc1C(F)(F)F [5-(4-fluorophenyl)-2-methyl-1-(2-trifluoromethylphenyl)-1H-pyrrole-3-carboxylic acid (4-methanesulfonyl-phenyl) amide] | < 0.5 | ++ (greater than ten-fold antagonist activity against MR compared to the four nuclear receptors AR, ERα, GR and PR)

The next lines start with results.

Row | IC50 (human MR) [µM] | SMILES | Selectivity (AR, ERα, GR and PR)
6 | 1 to 5 | Cc1cc(C(=O)Nc2ccc(S(=O)(=O)NC(=N)N)cc2)c(C)n1-c1ccccc1C(F)(F)F [2,5-Dimethyl-1-[2-(trifluoromethyl)phenyl]-1H-pyrrole-3-carboxylic acid (4-guanidinosulfonyl-phenyl)-amide] | + (greater than ten-fold antagonist activity against MR compared to at least one nuclear receptor selected from AR, ERα, GR and PR)
7 | < 0.5 | COc1cc(NC(=O)c2cc(C)n(-c3ccccc3C(F)(F)F)c2C)ccc1S(N)(=O)=O [2,5-dimethyl-1-(2-trifluoromethyl-phenyl)-1H-pyrrole-3-carboxylic acid (3-methoxy-4-sulfamoyl-phenyl)-amide] | ++ (greater than ten-fold antagonist activity against MR compared to the four nuclear receptors AR, ERα, GR and PR)
8 | 0.5 to 1 | Cc1cc(C(=O)Nc2ccc(NS(C)(=O)=O)cc2)c(C)n1-c1ccccc1C(F)(F)F [2,5-dimethyl-1-(2-trifluoromethyl-phenyl)-1H-pyrrole-3-carboxylic acid (4-methanesulfonylamino-phenyl)-amide] | + (greater than ten-fold antagonist activity against MR compared to at least one nuclear receptor selected from AR, ERα, GR and PR)
9 | 0.5 to 1 | Cc1cc(C(=O)Nc2ccc(S(=O)(=O)C(C)C)cc2)c(C)n1-c1ccccc1C(F)(F)F [2,5-dimethyl-1-(2-trifluoromethyl-phenyl)-1H-pyrrole-3-carboxylic acid [4-(propane-2-sulfonyl)-phenyl]-amide] | + (greater than ten-fold antagonist activity against MR compared to at least one nuclear receptor selected from AR, ERα, GR and PR)
10 | 1 to 5 | CCNS(=O)(=O)c1ccc(NC(=O)c2cc(C)n(-c3ccccc3C(F)(F)F)c2C)cc1 [2,5-dimethyl-1-[2-(trifluoromethyl)phenyl]-1H-pyrrole-3-carboxylic acid (4-ethylsulfamoyl-phenyl)-amide] | + (greater than ten-fold antagonist activity against MR compared to at least one nuclear receptor selected from AR, ERα, GR and PR)
